The conditions of the data set: Crystal; DTA.

SMILES strings stand for the structures. ± gives the expanded uncertainty stated by the source.

`c1ccc2c(c1)oc1ccccc12` [dibenzo[bd]furan]: the Normal melting temperature worked out at 82.51 ± 0.41 °C.
The same measure for `c1ccc2c(c1)Cc1ccccc1-2` [fluorene]: 114.38 ± 0.41 °C.

For the origin of these results see the NIST ThermoML archive (doi:10.1016/j.fluid.2012.01.031).
